Data from patent US8226943B2, “Antibodies to notch receptors” (OncoMed Pharmaceuticals, Inc., priority 2008, dated 2012).

Legend:
[1] = system: stroma from the xenograft models Colo205, B29, B34, B44, PE13, T1, C8, and PN8; experiment: TaqMan analysis of stromal gene expression in xenograft models; format: in vivo, mice
Text: The expression levels in the stroma from the xenograft models Colo205, B29, B34, B44, PE13, T1 (without estrogen treatment), T1 (with estrogen treatment), C8, and PN8 of selected genes that had been identified in the microarray analysis as being regulated by treatment with 59R1 (heyl, notch3, rgs5, angpt1, and angpt2) were further analyzed by TaqMan® analysis. The results are shown in FIGS. 12A (heyl), 12B (notch3), 12C (rgs5), 12D (angpt1), and 12E (angpt2).

[2] = system: breast tumor xenograft line OMP-B44; experiment: OMP-B44 breast tumor xenograft growth; format: in vivo, NOD/SCID mice; conditions: established tumors, 15 mg/kg once a week
Procedure: The 59R1 IgG2 antibody was also tested in vivo in the breast tumor xenograft lines OMP-B34, OMP-B39, OMP-B44, PE13, and UM-T1, the pancreas tumor xenograft line OMP-PN8, and the colon tumor xenograft line OMP-C8. These tumor xenograft lines were established by adhering to procedures described in Al-Hajj et al., 2003, Proc. Natl. Acad. Sci. USA, 100:3983-3988. Female NOD/SCID immuno-compromised mice 7-10 weeks old were used for the establishment of the breast tumor xenografts and male NOD/SCID mice were used for the OMP-Pn8 and OMP-C8 tumor-models (Harlan, Indianapolis, Ind.). The 59R1 IgG2 antibody was also tested in vivo in a Colo-205 colon tumor xenograft model. Female immunodeficient bg/nu XID mice on a Swiss CD-1 background were used for the Colo-205 xenograft tumor model. In case of the breast cancer models, slow-releasing estrogen pellets (0.36 mg) had to be implanted. Mice were subcutaneously injected on the right flank with 50,000 (OMP-B34, OMP-B39, OMP-B44, PE13, and UM-T1) or 1×10^7 (Colo-205) viable cells, respectively, in a mixture of PBS (without magnesium or calcium) and Matrigel at a 1:1 ratio. […] Antibodies were administered weekly and tumors measured twice weekly. […] Tumor volume was calculated as described Al-Hajj et al. (2003). Data are expressed as the mean and the mean±S.E.M. Group means were compared using Student's two-tailed, unpaired t-test. […]

[3] = each of the various tumor types, relative to control

## 59R1: human IgG2 antibody binding Notch2 and Notch3; heavy and light chain SEQ ID NO:16 and 18; ATCC PTA-9547
[1]; absence of estrogen treatment (T1 ne)
  effect on down-regulation of angiopoietin-1 and angiopoietin-2 in the stroma of the T1 tumor: abrogated
[1]; breast cancer models
  angiopoietin-1 (angpt1) expression in stroma (TaqMan): down-regulated in the stroma of a number of the breast cancer models
  angiopoietin-2 (angpt2) expression in stroma (TaqMan): down-regulated in the stroma of a number of the breast cancer models
[1]; [3]
  notch3 expression in stroma (TaqMan): down-regulated
  rgs5 expression in stroma (TaqMan): down-regulated
[1]; estrogen treatment used (T1 e)
  angpt1 and angpt2 expression in the stroma of the T1 model: down-regulated
[1]; xenograft models, relative to control
  heyl expression in stroma (TaqMan): downregulated in the stroma of each of the xenograft models except B34
[2]
  B44 breast cancer growth relative to control antibody: inhibit breast cancer growth
